Test results as given in US20240174680A1, “CDK2 INHIBITORS AND METHODS OF USING THE SAME” (Cedilla Therapeutics, Inc., priority 2021, published 2024).

Biological target: CDK2/Cyclin E1 (Homo sapiens, UniProt P24941)
Assay: CDK2/Cyclin E1 Caliper LabChip EZ Reader mobility shift assay
Assay type: biochemical
Design: purchased Eurofins 14-475
Details: read-out: Caliper Assay (CDK2/CCNE1): IC50
In short: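 Substrate-to-product conversion of fluorescent peptide (1.5 μM final) read by capillary electrophoresis after 100 min reaction, EDTA-quenched. Enzyme (2.5 nM final) and ATP (100 μM final) were preincubated 30 min with inhibitor dilutions first. % activity vs concentration fitted four-parameter for IC50.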

Row | Compound | IC50 [nM]
1 | CNC(=O)[C@@H](NC(=O)[C@H]1CN(C(=O)c2cnn(CC3CCNCC3)c2)CC12CN(C(=O)[C@H]1CC1(C)C)C2)[C@@H](C)OCc1ccccc1 [I-19B] | > 10000
2 | C[C@@H](OCc1ccc(C(F)(F)F)cc1)[C@H](NC(=O)[C@@H]1CN(C(=O)c2cncs2)CC12CN(C(=O)[C@H]1CC1(C)C)C2)C(=O)N1C2CCC1COC2 [I-470] | ≤ 10
3 | CNC(=O)[C@@H](NC(=O)[C@H]1CN(C(=O)c2cnc[nH]2)CC12CN(C(=O)[C@H]1CC1(C)C)C2)[C@@H](C)OCc1ccccc1 [I-44B] | > 10000
4 | CNC(=O)[C@@H](NC(=O)[C@H]1CN(C(=O)c2cnco2)CC12CN(C(=O)[C@H]1CC1(C)C)C2)[C@@H](C)OCc1ccccc1 [I-39B] | > 10000
5 | CNC(=O)[C@@H](NC(=O)[C@@H]1CN(C(=O)c2cnn(Cc3ccccc3)c2)CC12CN(C(=O)CC(F)(F)F)C2)[C@@H](C)OCc1ccccc1 [I-87A] | 100 to 1000
6 | CNC(=O)[C@@H](NC(=O)[C@@H]1CN(C(=O)c2scnc2C)CC12CN(C(=O)[C@H]1CC1(C)C)C2)[C@@H](C)OCC1CCCCC1 [I-160A] | 10 to 100
7 | CNC(=O)[C@@H](NC(=O)[C@H]1CN(C(=O)c2cncs2)CC12CN(C(=O)C(C)(C)C)C2)[C@@H](C)OCC1CCCCC1 [I-186B] | > 10000
8 | CC1(C)C[C@@H]1C(=O)N1CC2(CN(C(=O)c3cnn(Cc4ccccc4)c3)C[C@@H]2C(=O)Nc2cccc(Cc3ccccc3)c2)C1 [I-75B] | 1000 to 10000
9 | CNC(=O)[C@@H](NC(=O)[C@@H]1CN(C(=O)c2cnn(Cc3ccccc3)c2)CC12CN(C(=O)[C@H]1CC1(C)C)C2)[C@@H](C)OCCC1CCCCC1 [I-125A] | ≤ 10
10 | CNC(=O)[C@@H](NC(=O)[C@H]1CN(C(=O)c2ccncc2)CC12CN(C(=O)[C@H]1CC1(C)C)C2)[C@@H](C)OCc1ccccc1 [I-46B] | > 10000
11 | CNC(=O)[C@@H](NC(=O)[C@H]1CN(C(=O)c2scnc2C)CC12CN(C(=O)[C@H]1CC1(C)C)C2)[C@@H](C)OCC1CCCCC1 [I-160B] | > 10000
12 | CNC(=O)[C@@H](NC(=O)[C@@H]1CN(C(=O)c2cnn(Cc3ccccc3)c2)CC12CN(C(=O)C1C(C)(C)C1(C)C)C2)[C@@H](C)OCc1ccccc1 [I-89A] | 1000 to 10000
13 | CNC(=O)[C@@H](NC(=O)[C@H]1CN(C(=O)c2cnn(Cc3ccccc3)c2)CC12CN(C(=O)CC(C)(C)C)C2)[C@@H](C)OCc1ccccc1 [I-62B] | > 10000
14 | CNC(=O)[C@@H](NC(=O)[C@@H]1CN(C(=O)c2scnc2Cl)CC12CN(C(=O)[C@H]1CC1(C)C)C2)[C@@H](C)OCC1CCCCC1 [I-157A] | 10 to 100
15 | CNC(=O)[C@@H](NC(=O)[C@@H]1CN(C(=O)C2CCOCC2)CC12CN(C(=O)[C@H]1CC1(C)C)C2)[C@@H](C)OCc1ccccc1 [I-38A] | > 10000
16 | CNC(=O)[C@@H](NC(=O)[C@@H]1CN(C(=O)c2cnn(Cc3ccccc3)c2)CC12CN(C(=O)C1(C3CC3)CC1)C2)[C@@H](C)OCc1ccccc1 [I-114A] | 100 to 1000

More lines, now with the values ahead:

Row | IC50 [nM] | Compound
17 | > 10000 | Cc1nc(C)c(C(=O)N2C[C@@H](C(=O)NC(c3cccc(C4CCOCC4)n3)C(C)(C)O)C3(C2)CN(C(=O)[C@H]2CC2(C)C)C3)s1 (some centres unmarked) [I-437]
18 | 10 to 100 | C[C@@H](OCC1CCOCC1)[C@H](NC(=O)[C@@H]1CN(C(=O)c2cncs2)CC12CN(C(=O)[C@H]1CC1(C)C)C2)C(=O)N1CCC(n2ccnc2)CC1 [I-440]
19 | ≤ 10 | COC[C@H]1CCCN(C(=O)[C@@H](NC(=O)[C@@H]2CN(C(=O)c3cncs3)CC23CN(C(=O)C(C)(C)C2CC2)C3)[C@@H](C)OC(C)C2CCC(F)(F)CC2)C1 (some centres unmarked) [I-399]
20 | 1000 to 10000 | CNC(=O)C(NC(=O)[C@@H]1CN(C(=O)c2cncs2)CC12CN(C(=O)[C@H]1CC1(C)C)C2)c1cccc(N2CC3(COC3)C2)n1 (some centres unmarked) [I-427]
21 | > 10000 | Cc1ccc(CNC(=O)[C@@H]2CN(C(=O)c3cnn(Cc4ccccc4)c3)CC23CN(C(=O)[C@H]2CC2(C)C)C3)cn1 [I-364]
22 | 1000 to 10000 | CNC(=O)[C@@H](NC(=O)C1(C)CN(C(=O)c2cnn(Cc3ccccc3)c2)CC12CN(C(=O)[C@H]1CC1(C)C)C2)[C@@H](C)OCc1ccccc1 (stereo partly drawn) [I-498, 6-(1-benzyl-1H-pyrazole-4-carbonyl)-N-((2S,3R)-3-(benzyloxy)-1-(methylamino)-1-oxobutan-2-yl)-2-((S)-2,2-dimethylcyclopropane-1-carbonyl)-8-methyl-2,6-diazaspiro[3.4]octane-8-carboxamide]
23 | 100 to 1000 | CNC(=O)[C@@H](NC(=O)[C@@H]1CN(C(=O)c2cncs2)CC12CN(C(=O)[C@H]1CC1(C)C)C2)[C@@H](C)OCC1CC2CCC1O2 (some centres unmarked) [I-462]
24 | > 10000 | CNC(=O)[C@@H](NC(=O)[C@@H]1CN(C(=O)Cc2cn[nH]c2)CC12CN(C(=O)[C@H]1CC1(C)C)C2)[C@@H](C)OCc1ccccc1 [I-358]
25 | > 10000 | CNC(=O)C(NC(=O)[C@@H]1CN(C(=O)c2cncs2)CC12CN(C(=O)[C@H]1CC1(C)C)C2)C(O)Cc1ccccc1 (some centres unmarked) [I-356]
26 | 10 to 100 | C[C@@H](OCC1(C(F)(F)F)CC1)[C@H](NC(=O)[C@H]1CN(C(=O)c2cncs2)CC12CN(C(=O)[C@H]1CC1(C)C)C2)C(=O)N1CCCCC1 [I-292]
27 | 100 to 1000 | CNC(=O)[C@@H](NC(=O)C1(F)CN(C(=O)c2cnn(Cc3ccccc3)c2)CC12CN(C(=O)[C@H]1CC1(C)C)C2)[C@@H](C)OCc1ccccc1 (some centres unmarked) [I-500]
28 | 10 to 100 | C[C@@H](OCC1CCCCC1)[C@@H](CO)NC(=O)[C@@H]1CN(C(=O)c2cncs2)CC12CN(C(=O)[C@H]1CC1(C)C)C2 [I-307]
29 | 10 to 100 | CNC(=O)C(NC(=O)[C@@H]1CN(C(=O)c2cncs2)CC12CN(C(=O)C(C)(C)C1CC1)C2)c1cccc(C2CCCCC2)n1 (stereo partly drawn) [I-410, (8S)—N-(1-(6-cyclohexylpyridin-2-yl)-2-(methylamino)-2-oxoethyl)-2-(2-cyclopropyl-2-methylpropanoyl)-6-(thiazole-5-carbonyl)-2,6-diazaspiro[3.4]octane-8-carboxamide]
30 | 10 to 100 | COCC1CCCN(C(=O)[C@@H](NC(=O)C2CN(C(=O)c3cnn(Cc4ccccc4)c3)CC23CN(C(=O)[C@H]2CC2(C)C)C3)[C@@H](C)OCc2ccccc2)C1 (some centres unmarked) [I-64]
31 | 1000 to 10000 | COC[C@H]1CCCN(C(=O)[C@@H](C)NC(=O)[C@@H]2CN(C(=O)c3cncs3)CC23CN(C(=O)[C@H]2CC2(C)C)C3)C1 [I-324]
32 | ≤ 10 | C[C@@H](OCC12CCC(CC1)OC2)[C@H](NC(=O)[C@@H]1CN(C(=O)c2cncs2)CC12CN(C(=O)[C@H]1CC1(C)C)C2)C(=O)N1CCC2(CC1)COC2 [I-336]
33 | 10 to 100 | CC1(C)C[C@@H]1C(=O)N1CC2(CN(C(=O)c3cncs3)C[C@H]2C(=O)N[C@@H](COCC2CCCCC2)C(=O)N2CCCCC2)C1 [I-286]

Row | IC50 [nM] | Compound
34 | 100 to 1000 | CNC(=O)[C@@H](NC(=O)[C@@H]1CN(C(=O)c2c[nH]c(=O)s2)CC12CN(C(=O)[C@H]1CC1(C)C)C2)[C@@H](C)OCC1CCCCC1 [I-184]
35 | 10 to 100 | C[C@@H](OCC1CCOCC1)[C@H](NC(=O)[C@@H]1CN(C(=O)c2cncs2)CC12CN(C(=O)[C@H]1CC1(C)C)C2)C(=O)N1CCC[C@H](COC(F)(F)F)C1 [I-327]
36 | ≤ 10 | CC(O[C@H](C)[C@H](NC(=O)[C@@H]1CN(C(=O)c2cncs2)CC12CN(C(=O)[C@H]1CC1(C)C)C2)C(=O)N1CCC(F)(F)CC1)C1CCC(F)(F)CC1 (some centres unmarked) [I-361]
37 | 100 to 1000 | CNC(=O)[C@@H](NC(=O)[C@@H]1CN(C(=O)c2cnn(Cc3ccccc3)c2)CC12CN(C(=O)[C@H]1CC1(C)C)C2)[C@@H](C)NCC1CCCCC1 [I-269, (S)-6-(1-benzyl-1H-pyrazole-4-carbonyl)-N-((2S,3R)-3-((cyclohexylmethyl)amino)-1-(methylamino)-1-oxobutan-2-yl)-2-((S)-2,2-dimethylcyclopropane-1-carbonyl)-2,6-diazaspiro[3.4]octane-8-carboxamide]
38 | ≤ 10 | C[C@@H](OCC12CCC(CC1)OC2)[C@H](NC(=O)[C@@H]1CN(C(=O)c2cncs2)CC12CN(C(=O)[C@H]1CC1(C)C)C2)C(=O)N1CCC2(CC1)CC2 [I-458]
39 | > 10000 | CC1(C)C[C@@H]1C(=O)N1CC2(CN(C(=O)c3cnn(Cc4ccccc4)c3)C[C@H]2C(=O)NC2CCNC(=O)C2)C1 (some centres unmarked) [I-223]
40 | ≤ 10 | C[C@@H](OCC1CCCCC1)[C@H](NC(=O)[C@@H]1CN(C(=O)c2ccns2)CC12CN(C(=O)[C@H]1CC1(C)C)C2)C(=O)N1CCCCC1 [I-217]
41 | 100 to 1000 | CC1(C)C[C@@H]1C(=O)N1CC2(CN(C(=O)c3cnn(Cc4ccccc4)c3)C[C@H]2C(=O)N2CC[C@@H](OCC3CCCCC3)C2)C1 [I-235]
42 | 10 to 100 | C[C@@H](OCc1ccccc1)[C@H](NC(=O)C1CN(C(=O)c2cnn(Cc3ccccc3)c2)CC12CN(C(=O)[C@H]1CC1(C)C)C2)C(=O)N1CCC(F)(F)CC1 (some centres unmarked) [I-85]
43 | 10 to 100 | C[C@@H](OCC1CCCCC1)[C@H](NC(=O)[C@@H]1CN(C(=O)c2cncs2)CC12CN(C(=O)[C@H]1CC1(F)F)C2)C(=O)N1CCCCC1 [I-296]
44 | 100 to 1000 | C[C@@H](OCC1CCOCC1)[C@H](NC(=O)[C@@H]1CN(C(=O)c2cncs2)CC12CN(C(=O)C(C)(C)C1CC1)C2)C(C)(C)O [I-341]
45 | 10 to 100 | C[C@@H](OCc1ccccc1)C(NC(=O)C1CN(C(=O)c2cnn(Cc3ccccc3)c2)CC12CN(C(=O)[C@H]1CC1(C)C)C2)C(=O)NCCOCCOCCO (some centres unmarked) [I-21]
46 | ≤ 10 | C[C@@H](OCC1CCCCC1)[C@H](NC(=O)[C@@H]1CN(C(=O)c2cnn(Cc3ccccc3)c2)CC12CN(C(=O)[C@H]1CC1(C)C)C2)C(=O)N1CCC(n2cccn2)CC1 [I-439]
47 | 1000 to 10000 | CC1(C)C[C@@H]1C(=O)N1CC2(CN(C(=O)c3cnn(Cc4ccccc4)c3)C[C@H]2C(=O)N[C@@H]2CCCN(CC3CCCCC3)C2)C1 [I-212]
48 | ≤ 10 | Cc1cc(C(=O)N2CC(C(=O)N[C@H](C(=O)N3CCCCC3)[C@@H](C)OCC3CCCCC3)C3(C2)CN(C(=O)[C@H]2CC2(C)C)C3)sn1 (some centres unmarked) [I-311]
49 | ≤ 10 | C[C@@H](OCC1CCC2(CCC2)CC1)[C@H](NC(=O)[C@@H]1CN(C(=O)c2cnn(Cc3ccccc3)c2)CC12CN(C(=O)[C@H]1CC1(C)C)C2)C(=O)N1CCC(c2cnc[nH]2)CC1 [I-444]
50 | ≤ 10 | CNC(=O)[C@@H](NC(=O)[C@@H]1CN(C(=O)c2cnn(Cc3ccccc3)c2)CC12CN(C(=O)[C@H]1CC1(C)C)C2)[C@@H](C)OCC1CCC(C)(C)CC1 [I-372]
